Experiments:
barnyardgrass [1] = assay: Test C preemergence; format: in vivo, Echinochloa crusgalli; conditions: preemergence, 0 to 100 scale (0 no effect, 100 complete control)
In short: (§1)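 Visual injury ratings on a 0–100 scale (100 = complete control) were made against untreated controls 10 days after treatment in the greenhouse. Compounds, formulated with surfactant in non-phytotoxic solvent, were sprayed on soil preemergence or onto one- to two-leaf plants 2–10 cm tall postemergence.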

blackgrass [2] = assay: Test C preemergence; format: in vivo, Alopecurus myosuroides; conditions: preemergence, 0 to 100 scale (0 no effect, 100 complete control)
In short: as §1

corn [3] = assay: Test C preemergence; format: in vivo, Zea mays; conditions: preemergence, 0 to 100 scale (0 no effect, 100 complete control)
From the text: (§2) Seeds of plant species selected from barnyardgrass (Echinochloa crusgalli), blackgrass (Alopecurus myosuroides), corn (Zea mays), foxtail, giant (giant foxtail, Setaria faberi), green foxtail (Setaria viridis), goosegrass (Eleusine indica), kochia (Bassia scoparia), oat, wild (wild oat, Avena fatua), pigweed, palmer (palmer amaranth, palmer pigweed, Amaranthus palmeri), Pigweed, Redroot (redroot pigweed, Amaranthus retroflexus), ragweed (common ragweed, Ambrosia artemisiifolia), ryegrass, Italian ([…] ryegrass, Lolium multiflorum), soybean (Glycine max), and wheat (Triticum aestivum) were planted into a blend of loam soil and sand and treated preemergence with a directed soil spray using test chemicals formulated in a non-phytotoxic solvent mixture which included a surfactant. At the same time, plants selected from these crops and weed species and also galium (catchweed bedstraw, Galium aparine) and horseweed (Erigeron canadensis) were planted in pots containing the same blend of loam soil and sand and treated with postemergence applications of test chemicals formulated in the same manner. Plants ranged in height from 2 to 10 cm and were in the one- to two-leaf stage for the postemergence treatment. Treated plants and untreated controls were maintained in a greenhouse for 10 days, after which time all treated plants were compared to untreated controls and visually evaluated for injury. Plant response ratings, summarized in Table C, are based on a 0 to 100 scale where 0 is no effect and 100 is complete control. A dash (-) response means no test result.

green foxtail [4] = assay: Test C preemergence; format: in vivo, Setaria viridis; conditions: preemergence, 0 to 100 scale (0 no effect, 100 complete control)
In short: as §1

kochia [5] = assay: Test C preemergence; format: in vivo, Bassia scoparia; conditions: preemergence, 0 to 100 scale (0 no effect, 100 complete control)
In short: as §1

oat, wild [6] = assay: Test C preemergence; format: in vivo, Avena fatua; conditions: preemergence, 0 to 100 scale (0 no effect, 100 complete control)
From the text: as §2

pigweed, palmer [7] = assay: Test C preemergence; format: in vivo, Amaranthus palmeri; conditions: preemergence, 0 to 100 scale (0 no effect, 100 complete control)
In short: as §1

ragweed [8] = assay: Test C preemergence; format: in vivo, Ambrosia artemisiifolia; conditions: preemergence, 0 to 100 scale (0 no effect, 100 complete control)
In short: as §1

ryegrass, Italian [9] = assay: Test C preemergence; format: in vivo, Lolium multiflorum; conditions: preemergence, 0 to 100 scale (0 no effect, 100 complete control)
In short: as §1

soybean [10] = assay: Test C preemergence; format: in vivo, Glycine max; conditions: preemergence, 0 to 100 scale (0 no effect, 100 complete control)
From the text: as §2

wheat [11] = assay: Test C preemergence; format: in vivo, Triticum aestivum; conditions: preemergence, 0 to 100 scale (0 no effect, 100 complete control)
From the text: as §2

barnyardgrass [12] = assay: Test C postemergence; format: in vivo, Echinochloa crusgalli; conditions: 10 days
In short: as §1

blackgrass [13] = assay: Test C postemergence; format: in vivo, Alopecurus myosuroides; conditions: 10 days
In short: as §1

corn [14] = assay: Test C postemergence; format: in vivo, Zea mays; conditions: 10 days
From the text: as §2

green foxtail [15] = assay: Test C postemergence; format: in vivo, Setaria viridis; conditions: 10 days
In short: as §1

kochia [16] = assay: Test C postemergence; format: in vivo, Bassia scoparia; conditions: 10 days
In short: as §1

oat, wild [17] = assay: Test C postemergence; format: in vivo, Avena fatua; conditions: 10 days
From the text: as §2

pigweed, palmer [18] = assay: Test C postemergence; format: in vivo, Amaranthus palmeri; conditions: 10 days
In short: as §1

ragweed [19] = assay: Test C postemergence; format: in vivo, Ambrosia artemisiifolia; conditions: 10 days
In short: as §1

ryegrass, Italian [20] = assay: Test C postemergence; format: in vivo, Lolium multiflorum; conditions: 10 days
In short: as §1

soybean [21] = assay: Test C postemergence; format: in vivo, Glycine max; conditions: 10 days
From the text: as §2

wheat [22] = assay: Test C postemergence; format: in vivo, Triticum aestivum; conditions: 10 days
From the text: as §2

galium = assay: Test C postemergence; format: in vivo, Galium aparine; conditions: 10 days
In short: as §1

horseweed = assay: Test C postemergence; format: in vivo, Erigeron canadensis; conditions: 10 days
In short: as §1

[23] = 125 g ai/ha, postemergence, 0 to 100 scale, 0 no effect, 100 complete control
[24] = 500 g ai/ha, postemergence, 0 to 100 scale (0 no effect, 100 complete control)
[25] = Postemergence, 125 g ai/ha, 0 to 100 scale (0 no effect, 100 complete control)

COC(=O)N(C)c1ncn(-c2cccc(C(=O)N3C[C@H](C)Oc4c(C)cccc43)c2)n1 [30 0]
Barnyardgrass plant response rating (barnyardgrass [1]; 500 g ai/ha): 50 | Barnyardgrass plant response rating (barnyardgrass [1]; Test C, 125 g ai/ha): 0 | Blackgrass plant response rating (blackgrass [2]; 500 g ai/ha): 20 | Blackgrass plant response rating (blackgrass [2]; Test C, 125 g ai/ha): 0 | Corn plant response rating (corn [3]; 500 g ai/ha): 10 | Corn plant response rating (corn [3]; Test C, 125 g ai/ha): 0 | Foxtail, Green plant response rating (green foxtail [4]; 500 g ai/ha): 100 | Foxtail, Green plant response rating (green foxtail [4]; Test C, 125 g ai/ha): 80 | Kochia plant response rating (kochia [5]; 500 g ai/ha): 70 | Kochia plant response rating (kochia [5]; Test C, 125 g ai/ha): 50 | Oat, Wild plant response rating (oat, wild [6]; 500 g ai/ha): 30 | Oat, Wild plant response rating (oat, wild [6]; Test C, 125 g ai/ha): 20 | Pigweed, Palmer plant response rating (pigweed, palmer [7]; 500 g ai/ha): 80 | Pigweed, Palmer plant response rating (pigweed, palmer [7]; Test C, 125 g ai/ha): 20 | Ragweed plant response rating (ragweed [8]; 500 g ai/ha): 20 | Ragweed plant response rating (ragweed [8]; Test C, 125 g ai/ha): 0 | Ryegrass, Italian plant response rating (ryegrass, Italian [9]; 500 g ai/ha): 80 | Ryegrass, Italian plant response rating (ryegrass, Italian [9]; Test C, 125 g ai/ha): 60 | Soybean plant response rating (soybean [10]; 500 g ai/ha): 20 | Soybean plant response rating (soybean [10]; Test C, 125 g ai/ha): 0 | Wheat plant response rating (wheat [11]; 500 g ai/ha): 20 | Wheat plant response rating (wheat [11]; Test C, 125 g ai/ha): 0 | Plant response rating, Barnyardgrass (barnyardgrass [12]; [23]): 10 | Plant response rating, Barnyardgrass (barnyardgrass [12]; [24]): 50 | Plant response rating, Blackgrass (blackgrass [13]; [23]): 0 | Plant response rating, Blackgrass (blackgrass [13]; [24]): 80 | Plant response rating, Corn (corn [14]; [23]): 0 | Plant response rating, Corn (corn [14]; [24]): 70 | Plant response rating, Foxtail, Green (green foxtail [15]; [23]): 10 | Plant response rating, Foxtail, Green (green foxtail [15]; [24]): 50 | Plant response rating, Kochia (kochia [16]; [23]): 50 | Plant response rating, Kochia (kochia [16]; [24]): 60 | Plant response rating, Oat, Wild (oat, wild [17]; [23]): 0 | Plant response rating, Oat, Wild (oat, wild [17]; [24]): 40 | Plant response rating, Pigweed, Palmer (pigweed, palmer [18]; [23]): 30 | Plant response rating, Pigweed, Palmer (pigweed, palmer [18]; [24]): 40 | Plant response rating, Ragweed (ragweed [19]; [23]): 0 | Plant response rating, Ragweed (ragweed [19]; [24]): 50 | Plant response rating, Ryegrass, Italian (ryegrass, Italian [20]; [23]): 10 | Plant response rating, Ryegrass, Italian (ryegrass, Italian [20]; [24]): 80 | Plant response rating, Soybean (soybean [21]; [23]): 70 | Plant response rating, Soybean (soybean [21]; [24]): 100 | Plant response rating, Wheat (wheat [22]; [23]): 10 | Plant response rating, Wheat (wheat [22]; [24]): 30 | Plant response rating, Galium (galium; [23]): 60 | Plant response rating, Galium (galium; [24]): 90 | Plant response rating, Horseweed (horseweed; [23]): 30 | Plant response rating, Horseweed (horseweed; [24]): 30

CC(C)c1ncn(-c2cc(C(=O)N3C[C@H](C)Oc4c(Cl)cccc43)cnn2)n1 [Compound 305]
Barnyardgrass plant response rating (barnyardgrass [1]; 500 g ai/ha): 100 | Barnyardgrass plant response rating (barnyardgrass [1]; Test C, 125 g ai/ha): 70 | Blackgrass plant response rating (blackgrass [2]; 500 g ai/ha): 90 | Blackgrass plant response rating (blackgrass [2]; Test C, 125 g ai/ha): 50 | Corn plant response rating (corn [3]; 500 g ai/ha): 30 | Corn plant response rating (corn [3]; Test C, 125 g ai/ha): 0 | Foxtail, Green plant response rating (green foxtail [4]; 500 g ai/ha): 100 | Foxtail, Green plant response rating (green foxtail [4]; Test C, 125 g ai/ha): 100 | Kochia plant response rating (kochia [5]; 500 g ai/ha): 100 | Kochia plant response rating (kochia [5]; Test C, 125 g ai/ha): 80 | Oat, Wild plant response rating (oat, wild [6]; 500 g ai/ha): 80 | Oat, Wild plant response rating (oat, wild [6]; Test C, 125 g ai/ha): 20 | Pigweed, Palmer plant response rating (pigweed, palmer [7]; 500 g ai/ha): 100 | Pigweed, Palmer plant response rating (pigweed, palmer [7]; Test C, 125 g ai/ha): 80 | Ragweed plant response rating (ragweed [8]; 500 g ai/ha): 90 | Ragweed plant response rating (ragweed [8]; Test C, 125 g ai/ha): 70 | Ryegrass, Italian plant response rating (ryegrass, Italian [9]; 500 g ai/ha): 90 | Ryegrass, Italian plant response rating (ryegrass, Italian [9]; Test C, 125 g ai/ha): 60 | Soybean plant response rating (soybean [10]; 500 g ai/ha): 90 | Soybean plant response rating (soybean [10]; Test C, 125 g ai/ha): 0 | Wheat plant response rating (wheat [11]; 500 g ai/ha): 70 | Wheat plant response rating (wheat [11]; Test C, 125 g ai/ha): 0 | Plant response rating, Barnyardgrass (barnyardgrass [12]; [24]): 90 | Plant response rating, Barnyardgrass (barnyardgrass [12]; [25]): 30 | Plant response rating, Blackgrass (blackgrass [13]; [24]): 90 | Plant response rating, Blackgrass (blackgrass [13]; [25]): 40 | Plant response rating, Corn (corn [14]; [24]): 90 | Plant response rating, Corn (corn [14]; [25]): 10 | Plant response rating, Foxtail, Green (green foxtail [15]; [24]): 90 | Plant response rating, Foxtail, Green (green foxtail [15]; [25]): 50 | Plant response rating, Kochia (kochia [16]; [24]): 80 | Plant response rating, Kochia (kochia [16]; [25]): 50 | Plant response rating, Oat, Wild (oat, wild [17]; [24]): 60 | Plant response rating, Oat, Wild (oat, wild [17]; [25]): 30 | Plant response rating, Pigweed, Palmer (pigweed, palmer [18]; [24]): 80 | Plant response rating, Pigweed, Palmer (pigweed, palmer [18]; [25]): 30 | Plant response rating, Ragweed (ragweed [19]; [24]): 80 | Plant response rating, Ragweed (ragweed [19]; [25]): 70 | Plant response rating, Ryegrass, Italian (ryegrass, Italian [20]; [24]): 60 | Plant response rating, Ryegrass, Italian (ryegrass, Italian [20]; [25]): 30 | Plant response rating, Soybean (soybean [21]; [24]): 100 | Plant response rating, Soybean (soybean [21]; [25]): 100 | Plant response rating, Wheat (wheat [22]; [24]): 90 | Plant response rating, Wheat (wheat [22]; [25]): 40 | Plant response rating, Galium (galium; [24]): 100 | Plant response rating, Galium (galium; [25]): 100 | Plant response rating, Horseweed (horseweed; [24]): 100 | Plant response rating, Horseweed (horseweed; [25]): 30

Reference: patent US20260262643A1, “HERBICIDAL BENZOXAZINES” (FMC CORPORATION, priority 2022, published 2026)
